The text below walks through data of patent publication US11779015B2, “Pesticide compositions” (FUNDACIÓ CENTRE DE REGULACIÓ GENÒMICA, priority 2017, dated 2023).

One data set concerns D. suzukii. Description: Airborne toxicity petri dish assay, adult flies exposed to VOC vapours (FIG. 1A). In kind it is in vivo, Drosophila suzukii. The following applies: for time to 100% dead flies: monitored over 1 hour. As for the experimental part:
A selection of compounds according to the invention were tested for airborne toxicity to D. suzukii by exposing a population of adult D. suzukii flies to the vapours of the compound using an experimental set up as shown on FIG. 1A.
In particular, adult flies 2 were exposed to compositions 4 comprising one or more of a selection of VOCs according to the invention or a comparative example, in a petri dish 6. The compositions 4 were loaded onto the lid 6a of the petri dish 6 and the flies were placed into the base 6b of the dish, which was then covered by a sheet of plastic mesh netting 8 to avoid direct contact of the flies 2 with the compositions 4, before replacing the lid 6a.
[…] Four drops of 50 microlitres were dispensed into reinforcement rings (not shown) fixed on the inner surface of the petri dish lid 6a.
The experimental set up used was as described in relation to FIG. 1A.
The data is shown as averages±SEM based on 3 to 6 trials for each condition.

For the next data set, the system named is adult D. suzukii flies. Briefly: Petri dish assay, dose-range 0.3 to 10% vol in paraffin oil, 24 h exposure (FIG. 3E). In kind it is in vivo, Drosophila suzukii. The settings on record: for Minimal concentration (%) to induce 100% morbidity/mortality in D. suzukii adults: paraffin oil, 24 h exposure (Example 2); for concentration at which toxicity is displayed (as low as): dose-range 0.3 to 10% vol in paraffin oil, 24 h exposure, adult D. suzukii. The text has this: Data are represented as mean proportion of dead flies, with counts separated between male (as indicated by ‘M’) and female (as indicated by ‘F’) flies. […] Data points marked NaN were not tested at the indicated concentration. The MEC column summarises the minimal effective concentration to induce 100% morbidity/mortality to adult D. suzukii flies.

Data set [1] deals with honeybees (Apis mellifera). Description: Airborne toxicity on honeybees in the petri dish assay. In kind it is in vivo. The settings on record: paraffin oil, 24 hours.
Setting [2] is: VOC at 10 M in paraffin oil, vapour exposure, 1 hour.
The mark [3] stands for this setting: VOC at 10 M in paraffin oil, vapour exposure.

SMILES strings stand for the structures. Entries after “also recorded” stand apart in the source; their conditions may differ.

On to `CCCCCCO` [1-hexanol], for which the “airborne toxicity/lethality in the initial screen with a high dose (words)” value (“airborne toxicity/lethality” for short) in the data set on D. suzukii (setting [2]) is “showed toxicity”.

For `CCCCCC(C)=O` [2-heptanone], in the data set on D. suzukii (setting [2]), the “airborne toxicity/lethality” value is “showed toxicity”.

As to `CCC=C(C)C=O` [2-methyl-2-pentenal], in the data set on D. suzukii (setting [2]), the “airborne toxicity/lethality” value is on record as “showed toxicity”.

With `CC1=C(O)C(=O)OC1C` (centres unmarked) [4,5-Dimethyl-3-hydroxy-2,5-dihydrofuran-2-one, reference compound], in the data set with D. suzukii (setting [2]), the “airborne toxicity/lethality” value is on record as “showed toxicity”.

For `CC=CC(=O)CC` [4-hexen-3-one], the “airborne toxicity/lethality” value in the data set with D. suzukii (setting [2]) is reported as “showed toxicity”. Moreover, the “Minimal concentration (%) to induce 100% morbidity/mortality in D. suzukii adults” value in the data set with adult D. suzukii flies stood at 3%. The “Percentage of dead honey bee adults (%)” value in data set [1] (applied concentration 3%) came out at 0%.

Consider `CC/C=C\CC/C=C/C=O` [(E)-2,(Z)-6-nonadienal, trans-2,cis-6-Nonadienal], for which the “airborne toxicity/lethality” value in the data set on D. suzukii (setting [2]) was “showed toxicity”. Besides, the “Minimal concentration (%) to induce 100% morbidity/mortality in D. suzukii adults” value with adult D. suzukii flies came out at 3%. Besides, the “Percentage of dead honey bee adults (%)” value in data set [1] (applied concentration 3%) is 10%.

Take `CCCC/C=C/C=O` [(E)-2-heptenal]: the “airborne toxicity/lethality” value in the data set with D. suzukii (setting [2]) is recorded as “showed toxicity”. Besides, in the data set on adult D. suzukii flies, the “Minimal concentration (%) to induce 100% morbidity/mortality in D. suzukii adults” value came out at 3%. Also, the “Percentage of dead honey bee adults (%)” value in data set [1] (applied concentration 3%) is recorded as 0%.

Take `CC/C=C/C=O` [(E)-2-pentenal]: the “airborne toxicity/lethality” value in the data set on D. suzukii (setting [2]) was “showed toxicity”.

On to `CCCC/C=C/C=C/C=O` [(E,E)-2,4-nonadienal], for which, in the data set on D. suzukii (setting [2]), the “airborne toxicity/lethality” value is listed as “showed toxicity”. Further, in the data set with adult D. suzukii flies, the “concentration at which toxicity is displayed (as low as)” value (from here on “concentration … (as low as)”) is 2% and the “Minimal concentration (%) to induce 100% morbidity/mortality in D. suzukii adults” value is on record as 2%. Also, the “Percentage of dead honey bee adults (%)” value in data set [1] (applied concentration 2%) is 0%. The “Percentage of dead honey bee adults (%)” value in data set [1] (applied concentration 5%) worked out at 0%.

On to `CCCCCCC/C=C/C=O` [E-2-decenal], for which the “Percentage of dead honey bee adults (%)” value in data set [1] (applied concentration 2%) came out at 0%.

Consider `CCCCCCCCC/C=C/C=O` [E-2-dodecenal], for which the “airborne toxicity/lethality” value in the data set with D. suzukii (setting [2]) is listed as “showed toxicity”.

Consider `CCCCCC/C=C/C=O` [E-2-nonenal], for which, in the data set with D. suzukii (setting [2]), the “airborne toxicity/lethality” value was “showed toxicity”. For the same compound, the “concentration … (as low as)” value in the data set with adult D. suzukii flies was 2%.

In the case of `CCCCC/C=C/C=O` [E-2-octenal], the “airborne toxicity/lethality” value with D. suzukii (setting [2]) was “showed toxicity”. The “concentration … (as low as)” value in the data set on adult D. suzukii flies amounted to 2%.

Consider `CCCCCCCCCC/C=C/C=O` [E-2-tridecenal], for which the “airborne toxicity/lethality” value in the data set on D. suzukii (setting [2]) is listed as “showed toxicity”. Further, the “time to 100% dead flies” value with D. suzukii (setting [3]) is recorded as “an hour”.

As for `CCCCCCCC/C=C/C=O` [E-2-undecenal], in the data set with D. suzukii (setting [2]), the “airborne toxicity/lethality” value is reported as “showed toxicity”.

In the case of `CC/C=C/CCO` [E-3-hexenol], the “airborne toxicity/lethality” value with D. suzukii (in vivo) is recorded as “showed toxicity”.

On to `CC(=O)c1ccccc1` [acetophenone, Acetophenone], for which the “airborne toxicity/lethality” value with D. suzukii (setting [2]) was “showed toxicity”.

With `C=CCOC(=O)C1=CCCC1` [allyl 1-cyclopentene-1-carboxylate, Allyl 1-cyclopentene-1-carboxylate], the “airborne toxicity/lethality” value in the data set with D. suzukii (setting [2]) is “showed toxicity”. For the same compound, in the data set with adult D. suzukii flies, the “concentration … (as low as)” value is listed as 0.3% and the “Minimal concentration (%) to induce 100% morbidity/mortality in D. suzukii adults” value is reported as 0.5%. Besides, the “Percentage of dead honey bee adults (%)” value in data set [1] (applied concentration 1%) is reported as 0%.

As to `O=Cc1ccccc1` [benzaldehyde, Benzaldehyde], in the data set on D. suzukii (setting [2]), the “airborne toxicity/lethality” value is on record as “showed toxicity”.

Turning to `O=C(OCc1ccccc1)c1ccccc1` [benzyl benzoate, Benzyl benzoate, reference compound], the “airborne toxicity/lethality” value in the data set with D. suzukii (setting [2]) is “did not cause mortality”; with D. suzukii (VOC at 10 M in paraffin oil, vapour exposure, 1 hour, listed as Benzyl benzoate), “not toxic”.

As for `O=C(OCc1ccccc1)c1ccccc1O` [benzyl salicylate, Benzyl salicylate, reference compound], the “airborne toxicity/lethality” value with D. suzukii (setting [2]) is “did not cause mortality; also recorded: not toxic”.

For `CCCCOC(=O)C1CCCC1` [butyl cyclopentanecarboxylate, Butyl cyclopentanecarboxylate], the “airborne toxicity/lethality” value in the data set on D. suzukii (setting [2]) is on record as “showed toxicity”. Besides, the “Minimal concentration (%) to induce 100% morbidity/mortality in D. suzukii adults” value in the data set with adult D. suzukii flies stood at 3%. Further, the “Percentage of dead honey bee adults (%)” value in data set [1] (applied concentration 3%) was 0%.

`CCOC(=O)c1ccccc1` [ethyl benzoate, Ethyl benzoate]: the “airborne toxicity/lethality” value in the data set with D. suzukii (setting [2]) is given as “showed toxicity”.

With `CCOC(=O)Cc1ccccc1` [ethyl phenyl acetate, Ethyl phenylacetate], the “airborne toxicity/lethality” value in the data set with D. suzukii (setting [2]) is “showed toxicity”. Besides, the “time to 100% dead flies” value in the data set on D. suzukii (setting [3]) is on record as “half an hour”.

On to `CCCCCCC=O` [heptanal, Heptanal], for which the “airborne toxicity/lethality” value in the data set on D. suzukii (setting [2]) was “showed toxicity”.

With `CC(C)OC(=O)C1CCCC1` [isopropyl cyclopentanecarboxylate, Isopropyl cyclopentanecarboxylate], the “airborne toxicity/lethality” value with D. suzukii (setting [2]) is given as “showed toxicity”.

In the case of `C=CC(C)(CCC=C(C)C)OC(=O)c1ccccc1` (centres unmarked) [linalyl benzoate, Linalyl benzoate, reference compound], the “airborne toxicity/lethality” value in the data set with D. suzukii (setting [2]) is given as “did not cause mortality; also recorded: not toxic”.

In the case of `CCC(C)C(=O)OC` (centres unmarked) [methyl 2-methylbutyrate, Methyl 2-methyl butyrate], the “airborne toxicity/lethality” value in the data set on D. suzukii (setting [2]) was “showed toxicity”.

Take `COC(=O)C1CCCCC1` [methyl cyclohexanoate]: the “airborne toxicity/lethality” value in the data set with D. suzukii (setting [2]) is given as “showed toxicity”.

`COC(=O)C1CCCC1` [methyl cyclopentanecarboxylate, Methyl cyclopentanecarboxylate]: in the data set on D. suzukii (setting [2]), the “airborne toxicity/lethality” value is given as “showed toxicity”.

With `COC(=O)c1ccccc1O` [methyl salicylate], in the data set with D. suzukii (setting [2]), the “airborne toxicity/lethality” value is “showed toxicity”.

Turning to `CCCCCCCCC=O` [nonanal, Nonanal], in the data set with D. suzukii (setting [2]), the “airborne toxicity/lethality” value is reported as “showed toxicity”. Further, the “Minimal concentration (%) to induce 100% morbidity/mortality in D. suzukii adults” value in the data set on adult D. suzukii flies was found to be 3%. For the same compound, the “Percentage of dead honey bee adults (%)” value in data set [1] (applied concentration 3%) stood at 0%.

`CCCCCCCC=O` [octanal, Octanal]: the “airborne toxicity/lethality” value in the data set on D. suzukii (setting [2]) is “showed toxicity”.

Consider `CCCCC=O` [pentanal, Pentanal], for which the “airborne toxicity/lethality” value in the data set with D. suzukii (setting [2]) is recorded as “showed toxicity”.

`CCCCCOC(=O)c1ccccc1` [pentyl benzoate, Pentyl benzoate]: the “airborne toxicity/lethality” value in the data set on D. suzukii (setting [2]) is on record as “showed toxicity”. For the same compound, the “time to 100% dead flies” value in the data set with D. suzukii (setting [3]) was “an hour”.

Turning to `CCCOC(=O)c1ccccc1` [propyl benzoate, Propyl benzoate], the “airborne toxicity/lethality” value with D. suzukii (setting [2]) is “showed toxicity”.
